Results taken from PMC4519180, “Fluorescence Polarization Screening Assays for Small Molecule Allosteric Modulators of ABL Kinase Function” (PLoS ONE, 2015).

Experiments:
[1] = biological target: T1, isolated ABL SH3 domain (Homo sapiens, UniProt P00519); experiment: Surface plasmon resonance, isolated SH3 domain; type: binding; conditions: SPR, data not shown
T1 construct: we performed FP assays with the N32L protein as well as the isolated ABL SH3 domain; made in house
Procedure: (§1) SPR analysis was performed on a BIAcore T100 instrument (GE Healthcare) using four-channel CM5 biosensor chips at 25°C. Recombinant purified ABL proteins were covalently attached to the CM5 chip via standard amine coupling chemistry. Compound 142 (dipyridamole; Prestwick Chemical) was prepared in 20 mM Tris-HCl, pH 8.3, 150 mM NaCl and 0.1% DMSO and flowed past the immobilized ABL protein channel and a reference channel on the biosensor at a flow rate of 50 μL/min for 3 min over a range of concentrations. The initial binding reaction was followed by dissociation for 5 min, and the chip surface was regenerated using 20 mM Tris-HCl, pH 8.3, 150 mM NaCl, 0.1% DMSO, 0.05% Tween 20 and 1 mM DTT at a flow rate of 50 μL/min for 10 min. Sensorgrams were recorded in triplicate, corrected for buffer effects, and fitted with the 1:1 Langmuir binding model using the BIAevaluation software suite version 2.0.4 (GE Healthcare).

[2] = biological target: T2, ABL N32L WT protein (Homo sapiens, UniProt P00519, DEL15-56); experiment: Differential scanning fluorimetry; type: binding; conditions: compound 100 μM, N32L 1 μM, vs DMSO
T2 construct: corresponding to residues 2–255 with an internal deletion of residues 15–56; Gly-His6 (GHHHHHH) (N); made in house; host or cells: E. coli Rosetta2(DE3)pLysS
T2 sequence (P00519 with tags, fused parts or gaps isoform P00519-2 DEL15-56): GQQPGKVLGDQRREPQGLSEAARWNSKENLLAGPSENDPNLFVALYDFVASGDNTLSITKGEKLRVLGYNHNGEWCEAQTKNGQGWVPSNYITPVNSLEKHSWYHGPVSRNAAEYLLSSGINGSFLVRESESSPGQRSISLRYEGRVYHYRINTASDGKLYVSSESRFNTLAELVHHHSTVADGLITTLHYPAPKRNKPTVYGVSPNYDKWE
Procedure: Hit compounds (100 μM) were pre-incubated with the ABL N32L WT protein (1 μM) for 30 minutes in bicine assay buffer (10 mM bicine, 150 mM NaCl, pH 8.0). SYPRO Orange (Sigma) was added at 5X final concentration and fluorimetry profiles were acquired with a StepOnePlus real-time quantitative PCR instrument (Applied Biosystems) and software (version 2.3). Assays were performed in duplicate in sealed MicroAmp Fast 96-well qPCR plates (Applied Biosystems), and control reactions without proteins were included to correct for background fluorescence. Assays were equilibrated at 25°C for 2 minutes, followed by an increase in temperature at the rate of 1% (1.6°C/min) to 99°C, with continuous data collection. Mean fluorescence intensities, after subtracting background fluorescence, were plotted against temperature. Non-linear regression analysis using the Boltzmann sigmoid function in GraphPad Prism 6 was used to determine the Tm values, the midpoint of the melt curve between the minimum and maximum fluorescence intensities.

[3] = biological target: T3, SRC-family kinase HCK (Homo sapiens, UniProt P08631, Q523E/Q524E/Q525I); experiment: ADP Quest kinetic kinase assay, HCK; type: biochemical; conditions: 1 μM; recombinant near-full-length downregulated HCK
T3 construct: made in house; host or cells: Sf9 insect cells
T3 sequence (P08631 78-526 Q523E/Q524E/Q525I limits assumed): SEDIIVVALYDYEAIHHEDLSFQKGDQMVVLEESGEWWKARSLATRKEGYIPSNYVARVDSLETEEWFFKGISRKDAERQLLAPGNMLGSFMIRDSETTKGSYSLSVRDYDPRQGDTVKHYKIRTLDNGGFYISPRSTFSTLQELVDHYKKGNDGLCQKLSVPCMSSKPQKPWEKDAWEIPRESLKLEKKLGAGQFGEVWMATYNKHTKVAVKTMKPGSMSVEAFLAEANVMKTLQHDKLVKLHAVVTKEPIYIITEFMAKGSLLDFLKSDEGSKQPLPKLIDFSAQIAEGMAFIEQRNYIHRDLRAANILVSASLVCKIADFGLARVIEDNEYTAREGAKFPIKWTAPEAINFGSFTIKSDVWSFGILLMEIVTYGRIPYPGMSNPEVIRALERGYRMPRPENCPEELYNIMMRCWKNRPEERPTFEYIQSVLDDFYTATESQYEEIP
Procedure: The ADP Quest assay (DiscoverRx), which fluorimetrically measures kinase activity as the production of ADP, was used to determine ABL kinase reaction velocities. Assays were performed in quadruplicate in black 384 well plates (Corning #3571) in reaction volumes of 10 μL/well. Recombinant kinase protein concentrations were fixed at 40 ng/well for the wild type ABL core, 9 ng/well for the high affinity linker ABL core, and 250 ng/well for the SRC family kinase HCK. […] Each kinase reaction was initiated by the addition of ATP and read at 5 min intervals for 3 h in a SpectraMax M5 Microplate reader (Molecular Devices). […] The resulting progress curves were analyzed according to the method of Moroco et al.. Briefly, raw fluorescence data were corrected for non-enzymatic ADP production (no kinase or substrate control) and kinase auto-phosphorylation (rate observed in the absence of substrate), and converted to pmol ADP produced using an ADP standard curve generated under the same reaction conditions. […] Substrate and ATP Km values were determined by non-linear regression analysis using the Michaelis-Menten equation (GraphPad Prism 6).

[4] = biological target: T4, wild type ABL kinase core (Homo sapiens, UniProt P00519, DEL15-56); experiment: ADP Quest kinetic kinase assay, wild type ABL core; type: biochemical; conditions: 30 min pre-incubation; ATP and substrate at Km; mean ± SE, triplicate; read-out: EC50 for activation of ABL core
T4 construct: ABL core proteins (residues 1–531 with an internal deletion of residues 15–56); made in house; host or cells: Sf9 insect cells
T4 sequence (P00519 with tags, fused parts or gaps isoform P00519-2 DEL15-56): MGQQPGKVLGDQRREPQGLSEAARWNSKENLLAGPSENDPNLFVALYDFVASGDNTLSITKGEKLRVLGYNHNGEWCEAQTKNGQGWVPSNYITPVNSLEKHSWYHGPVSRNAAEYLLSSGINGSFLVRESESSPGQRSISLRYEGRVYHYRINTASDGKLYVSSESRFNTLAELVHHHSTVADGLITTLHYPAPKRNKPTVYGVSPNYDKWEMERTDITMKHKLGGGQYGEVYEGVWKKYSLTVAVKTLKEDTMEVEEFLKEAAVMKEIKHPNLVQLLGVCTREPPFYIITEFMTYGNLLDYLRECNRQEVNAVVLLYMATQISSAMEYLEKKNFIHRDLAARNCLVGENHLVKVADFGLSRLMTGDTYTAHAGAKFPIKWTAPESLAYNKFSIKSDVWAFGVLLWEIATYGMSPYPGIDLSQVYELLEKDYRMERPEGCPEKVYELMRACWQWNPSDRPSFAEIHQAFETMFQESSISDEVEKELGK

[5] = biological target: T5, ABL N32L protein (Homo sapiens, UniProt P00519, DEL15-56); experiment: Surface plasmon resonance, immobilized ABL N32L; type: binding
T5 construct: corresponding to residues 2–255 with an internal deletion of residues 15–56; Gly-His6 (GHHHHHH) (N); made in house; host or cells: E. coli Rosetta2(DE3)pLysS
Procedure: as §1

[6] = tested on: ABL core with high-affinity linker (HAL); experiment: ADP Quest kinetic kinase assay, high-affinity linker ABL core; type: biochemical, human; conditions: 10 μM; ATP and substrate at Km
Procedure: The ADP Quest assay (DiscoverRx), which fluorimetrically measures kinase activity as the production of ADP, was used to determine ABL kinase reaction velocities. Assays were performed in quadruplicate in black 384 well plates (Corning #3571) in reaction volumes of 10 μL/well. […] The […] substrate peptide for ABL (EAIYAAPFAKKK) as well as the SFK substrate peptide ([…]) were dissolved in the ADP Quest assay buffer (15 mM HEPES, pH 7.4, 20 mM NaCl, 1 mM EGTA, 0.02% Tween-20, 10 mM MgCl2, 0.1 mg/ml bovine γ-globulins), while ATP stocks were prepared in 10 mM Tris-HCl (pH 7.0). Each kinase reaction was initiated by the addition of ATP and read at 5 min intervals for 3 h in a SpectraMax M5 Microplate reader (Molecular Devices). […] The resulting progress curves were analyzed according to the method of Moroco et al.. Briefly, raw fluorescence data were corrected for non-enzymatic ADP production (no kinase or substrate control) and kinase auto-phosphorylation (rate observed in the absence of substrate), and converted to pmol ADP produced using an ADP standard curve generated under the same reaction conditions. The resulting values were normalized to the amount of kinase present in each reaction, and plotted against time. […] Substrate and ATP Km values were determined by non-linear regression analysis using the Michaelis-Menten equation (GraphPad Prism 6).

[7] = biological target: T6, ABL SH3 domain (Homo sapiens, UniProt P00519); experiment: FP assay with isolated ABL SH3 domain and p41 probe; type: binding; conditions: significant inhibition at 3 and 10 μM
T6 construct: we performed FP assays with the N32L protein as well as the isolated ABL SH3 domain; made in house
T6 sequence (P00519 61-121 limits assumed): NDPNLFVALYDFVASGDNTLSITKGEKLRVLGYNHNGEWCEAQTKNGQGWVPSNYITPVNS
Procedure: (§2) Fluorescence Polarization (FP) experiments were performed in quadruplicate in low volume black 384 well plates with a non-binding surface (Corning; catalog # 3676). Peptides and proteins were added to each well in FP assay buffer (20 mM Tris-HCl, pH 8.3) for a final assay volume of 20 μL and mixed by shaking for 5 min at room temperature. The FP signal in millipolarization (mP) units was measured at an excitation wavelength of 485 nm and emission wavelength of 515 nm in a SpectraMax M5 microplate reader (Molecular Devices) using the Softmax Pro software (version 5.4.1). Each plate was read three times and the values were averaged prior to analysis. Raw fluorescence intensity was also read at the same wavelengths for each assay.

[8] = tested on: wild type ABL core expressed in 293T cells; experiment: ABL core autophosphorylation in transfected 293T cells (immunoblot); type: cell-based, human; conditions: for Effect on ABL phosphorylation (pY412, pY245, pY89), compound alone: compound 142 1–10 μM or DPH 10 μM
Procedure: ABL core proteins were expressed in human 293T cells and analyzed for kinase activity as described elsewhere. Briefly, cells were grown overnight in 60 mm plates, transfected with an expression vector for the wild type ABL core, and treated with compounds 2 h post- transfection. Cells were lysed by sonication 24 h later, and cell lysates clarified by centrifugation. ABL was immunoprecipitated via the C-terminal His-tag, resolved by SDS-PAGE, and transferred to nitrocellulose membranes for immunoblot analysis with antibodies to the ABL protein and the three autophosphorylation sites: pTyr412 (activation loop), pTyr245 (SH2-kinase linker), and pTyr89 (SH3 domain).

[9] = biological target: T7, ABL N32L protein (Ncap-SH3-SH2-linker) (Homo sapiens, UniProt P00519, DEL15-56); experiment: Fluorescence polarization (FP) assay, ABL N32L protein with p41 probe peptide; type: binding
T7 construct: corresponding to residues 2–255 with an internal deletion of residues 15–56; Gly-His6 (GHHHHHH) (N); made in house; host or cells: E. coli Rosetta2(DE3)pLysS
Procedure: as §2
A collection of 1200 FDA-approved small molecules (Prestwick Chemical, Inc.) was used in a pilot screen with the FP assay. Each library compound was screened at 10 μM and a final DMSO concentration of 1%. Compounds were added to 384-well assay plates first, followed by a pre-mixed complex of the ABL N32L protein (25 μg) and the p41 probe peptide (50 nM). Each plate also contained twenty-eight wells of the wild type N32L protein plus p41 probe and DMSO as positive controls as well as twenty-eight wells of mutant ABL N32L-W118A protein plus p41 probe peptide and DMSO as negative controls. Each plate was mixed on the shaker for 5 min, read three consecutive times, and the average FP signal for each well was calculated. To identify potential hit compounds, three measures were used: (i) average FP signal; (ii) control normalized percent inhibition, in which the FP signal with each compound was normalized to the mean FP signal of the positive and negative plate controls according to the formula: [(sample FP–mean FPWT) / (mean FPW118A –mean FPWT) x 100] [22, 23]; (iii) Z score, a statistical measure of variation of the mean sample FP signal that is independent of plate controls, calculated according to the formula: [(sample FP–mean FPsamples) / standard deviationsamples] [22, 23]. […]

[10] = biological target: T4, wild type ABL kinase core; experiment: ADP Quest kinetic kinase assay, wild type ABL core; type: biochemical; conditions: for Activation constant Kact: concentration giving half-maximum velocity; for Activation constant Kact / Vmax: mean ± SE; for Vmax: maximal reaction velocity with activator; for Vmax/Kact: overall enhancement of catalytic efficiency
Procedure: The ADP Quest assay (DiscoverRx), which fluorimetrically measures kinase activity as the production of ADP, was used to determine ABL kinase reaction velocities. Assays were performed in quadruplicate in black 384 well plates (Corning #3571) in reaction volumes of 10 μL/well. Recombinant kinase protein concentrations were fixed at 40 ng/well for the wild type ABL core, 9 ng/well for the high affinity linker ABL core, and 250 ng/well for the SRC family kinase HCK. The Tyr2 substrate peptide for ABL (EAIYAAPFAKKK) as well as the SFK substrate peptide (YIYGSFK) were dissolved in the ADP Quest assay buffer (15 mM HEPES, pH 7.4, 20 mM NaCl, 1 mM EGTA, 0.02% Tween-20, 10 mM MgCl2, 0.1 mg/ml bovine γ-globulins), while ATP stocks were prepared in 10 mM Tris-HCl (pH 7.0). Each kinase reaction was initiated by the addition of ATP and read at 5 min intervals for 3 h in a SpectraMax M5 Microplate reader (Molecular Devices). To determine the substrate Km for ABL kinases, the ATP concentration was fixed at 50 μM and the substrate peptide was serially diluted from 0.2–200 μM. For ABL kinase ATP Km determination, the substrate concentration was fixed at the respective substrate Km for each of the kinases, and the ATP concentration was titrated over the range of 0.2–200 μM. The resulting progress curves were analyzed according to the method of Moroco et al.. Briefly, raw fluorescence data were corrected for non-enzymatic ADP production (no kinase or substrate control) and kinase auto-phosphorylation (rate observed in the absence of substrate), and converted to pmol ADP produced using an ADP standard curve generated under the same reaction conditions. The resulting values were normalized to the amount of kinase present in each reaction, and plotted against time. The linear portion of each progress curve was fit by regression analysis to determine the reaction velocity. Substrate and ATP Km values were determined by non-linear regression analysis using the Michaelis-Menten equation (GraphPad Prism 6).
Half-maximal effective concentrations (EC50) and activation constants (Kact) were determined for the ABL kinase core by both dipyridamole and the known ABL activator, DPH (5-(1,3-diaryl-1H-pyrazol-4-yl)hydantoin; Sigma-Aldrich). The kinase was pre-incubated with each compound (10 nM to 100 μM) for 30 min at room temperature, followed by kinase assay with the substrate and ATP concentrations fixed at their respective Km values. The rate of each reaction was plotted against compound concentration, and analyzed by non-linear regression analysis (GraphPad Prism 6) to determine the EC50 value. To determine the activation constant Kact, the basal rate of kinase activity was subtracted from the rates of reaction in the presence of each compound concentration, and plotted as a function of compound concentration. The resulting curves obeyed saturation kinetics and were best-fit by the following equation [19]: Va= Vact[L]/(Kact+[L]) where Va is the reaction velocity in the presence of each activator concentration, Vact is the maximal reaction velocity, L is the activator concentration, and Kact is the activator concentration that yields half-maximal reaction velocity.

T1 sequence (P00519 61-121 limits assumed): as above

| Effect of unlabeled peptide on FP signal (competition) ([9]; p41 probe 50 nM, N32L 20 μg/well, unlabeled peptide 2.5 to 100 μM) | Compound | Kd [1] | Decrease in Tm [2] | Effect on HCK reaction velocity [3] | EC50 [4] | kon ([5]; 1:1 Langmuir binding model, 25°C, read-out: Association rate constant) | koff ([5]; 1:1 Langmuir binding model, 25°C, read-out: Dissociation rate constant) | Kd ([5]; SPR, ABL N32L protein, read-out: Equilibrium dissociation constant (KD), ratio kd/ka) | Effect on kinase activity of ABL core with HAL substitution [6] | FP signal with ABL SH3 protein over compound concentration range [7] | Effect on ABL phosphorylation (pY412, pY245, pY89), compound alone [8] | Effect on ABL phosphorylation (pY412, pY245, pY89) in the presence of DPH ([8]; compound 142 1–10 μM plus DPH 10 μM) | Inhibition of FP signal relative to DMSO controls (retest) ([9]; 10 μM, quadruplicate, screening assay conditions, p < 0.05) | FP signal with ABL N32L protein over compound concentration range ([9]; significant inhibition at 3 and 10 μM) | Stimulation of wild type ABL kinase activity relative to DMSO control ([10]; 10 μM, ATP and substrate at Km) | Activation constant Kact [10] | Vmax [10] | Vmax/Kact [10] |
| --- | --- | --- | --- | --- | --- | --- | --- | --- | --- | --- | --- | --- | --- | --- | --- | --- | --- | --- |
| – | OCCN(CCO)c1nc(N2CCCCC2)c2nc(N(CCO)CCO)nc(N3CCCCC3)c2n1 [compound 142, dipyridamole] | 30 µM | more than 2 °C | no effect | 630 ± 70 nM | 3870 ± 590000 M⁻¹ s⁻¹ | 0.027 ± 7.2e-05 s⁻¹ | 6.9 µM | did not affect | concentration-dependent decrease | did not affect phosphorylation | remarkable enhancement of phosphorylation | significant inhibition | concentration-dependent decrease | about 40% | 0.4 ± 0.02 µM | 3.2 ± 0.28 µM | 8.00 |
| no effect | QKEGERALPSIP [non-specific peptide] | – | – | – | – | – | – | – | – | – | – | – | – | – | – | – | – | – |
| – | 5-(1,3-diaryl-1H-pyrazol-4-yl)hydantoin [DPH] | – | – | – | 1110 ± 500 nM | – | – | – | did not activate | – | very small effect | – | – | – | – | 1.02 ± 0.07 µM | 1.90 ± 0.4 µM | 1.86 |
